US20250230193A1, “CYCLIC COMPOUND HAVING SELECTIVE KRAS INHIBITORY EFFECT ON HRAS AND NRAS” (CHUGAI SEIYAKU KABUSHIKI KAISHA, priority 2022, published 2025)
Where a SMILES comes first, the peptide text is derived from it. Bridges are numbered along the chain shown (N, C = ends). [ ]: non-standard residue; d: D form. The star is where a group is joined. hPhe(3-Cl-4-CF3) = N[C@@H](CCc1ccc(C(F)(F)F)c(Cl)c1)C(=O)O; NMePhe(4-Me) = CN[C@@H](Cc1ccc(C)cc1)C(=O)O; NMeGly(cPent) = CN[C@H](C(=O)O)C1CCCC1; NMeD = CN[C@@H](CC(=O)O)C(=O)O; NMeL = CN[C@@H](CC(C)C)C(=O)O; NMeS = CN[C@@H](CO)C(=O)O; Morpholide = C1CN(*)CCO1; Ac5c = NC1(C(=O)O)CCCC1; Sar = CNCC(=O)O

Key:
[1] = molecular target: GDP-bound HRAS wild-type protein (Homo sapiens, UniProt P01112); assay: Binding to HRAS by surface plasmon resonance (SPR), Single Cycle Kinetics; details: for HRAS/KRAS (ratio of KD value with respect to GDP-bound HRAS wild-type protein to KD value with respect to KRAS): class symbols
[2] = molecular target: GDP-bound NRAS wild-type protein (Homo sapiens, UniProt P01111); assay: Binding to NRAS by surface plasmon resonance (SPR), Single Cycle Kinetics; details: for NRAS/KRAS (ratio of KD value with respect to GDP-bound NRAS wild-type protein to KD value with respect to KRAS): class symbols
[3] = GDP-bound HRAS wild-type vs GDP-bound KRAS wild-type, SPR
[4] = GDP-bound NRAS wild-type vs GDP-bound KRAS wild-type, SPR

Chain of GDP-bound NRAS wild-type protein (P01111 whole entry): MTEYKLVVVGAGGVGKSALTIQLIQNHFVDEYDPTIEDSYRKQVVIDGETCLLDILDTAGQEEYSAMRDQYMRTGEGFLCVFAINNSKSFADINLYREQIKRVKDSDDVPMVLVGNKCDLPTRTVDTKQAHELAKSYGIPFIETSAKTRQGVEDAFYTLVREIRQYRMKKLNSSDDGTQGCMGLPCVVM
Chain of GDP-bound HRAS wild-type protein (P01112 whole entry): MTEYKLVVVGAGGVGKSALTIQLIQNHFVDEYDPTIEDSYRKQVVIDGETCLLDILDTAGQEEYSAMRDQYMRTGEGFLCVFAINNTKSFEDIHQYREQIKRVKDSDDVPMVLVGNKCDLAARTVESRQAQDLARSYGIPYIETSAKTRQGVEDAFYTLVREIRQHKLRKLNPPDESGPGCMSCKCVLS

## CCC[C@H]1C(=O)N[C@@H]([C@@H](C)CC)C(=O)N(C2CC2)CC(=O)N(C)[C@H]2C/C=C\CCN(C2=O)[C@@H](Cc2ccc(C(F)(F)F)cc2)C(=O)N(C)CC(=O)N[C@@H](CCc2ccc(Cl)c(Cl)c2)C(=O)N2C[C@H](OCC)C[C@H]2C(=O)NC2(CC(C)(C)C2)C(=O)N(C)[C@@H](CC2CC2)C(=O)N(C)[C@H](C(=O)N(C)C)CC(=O)N1C [PP2817]
[1]; KD ratio HRAS/KRAS
  HRAS/KRAS (ratio of KD value with respect to GDP-bound HRAS wild-type protein to KD value with respect to KRAS): A (a compound having 10 or more and less than 20 is denoted as A)
[2]; KD ratio NRAS/KRAS
  NRAS/KRAS (ratio of KD value with respect to GDP-bound NRAS wild-type protein to KD value with respect to KRAS): A (a compound having 10 or more and less than 20 is denoted as A)

## CCC[C@H]1C(=O)N[C@@H]([C@@H](C)CC)C(=O)N(C)CC(=O)N(C)[C@H]2C/C=C\CCN(C2=O)[C@@H](CC2CCC(F)(F)CC2)C(=O)N(C)CC(=O)N[C@@H](CCc2ccc(C(F)(F)F)c(OC)c2)C(=O)N2C[C@@H](C)C[C@H]2C(=O)NC2(CC(C)(C)C2)C(=O)N(C)[C@@H](C(CC)CC)C(=O)N(C)[C@H](C(=O)N(C)C)CC(=O)N1C [PP2497]
[1]; SPR, GDP-bound HRAS wild-type vs GDP-bound KRAS wild-type
  HRAS/KRAS (ratio of KD value with respect to HRAS to KD value with respect to KRAS): A (a compound having 10 or more and less than 20 is denoted as A)
[2]; SPR, GDP-bound NRAS wild-type vs GDP-bound KRAS wild-type
  NRAS/KRAS (ratio of KD value with respect to NRAS to KD value with respect to KRAS): A (a compound having 10 or more and less than 20 is denoted as A)

## CC[C@H](C)[C@@H]1NC(=O)[C@H](CC(C)C)N(C)C(=O)C[C@@H](C(=O)N2CCOCC2)N(C)C(=O)[C@H](C2CCCC2)N(C)C(=O)C2(CCCC2)NC(=O)[C@@H]2CCCN2C(=O)[C@H](CCc2ccc(C(F)(F)F)c(Cl)c2)NC(=O)CN(C)C(=O)[C@H](Cc2ccc(C)cc2)N(C)C(=O)[C@H](CO)N(C)C(=O)CN(C)C1=O [PP0037] ([NMeL]I[Sar][NMeS][NMePhe(4-Me)][Sar][hPhe(3-Cl-4-CF3)]P[Ac5c][NMeGly(cPent)][NMeD]-Morpholide; lactam N-11)
[1]; KD ratio HRAS/KRAS, SPR
  HRAS/KRAS (ratio of KD for GDP-bound HRAS wild-type to KD for KRAS): C (A compound having a KD ratio of 0.1 or more and less than 3 is denoted as C)
[2]; KD ratio NRAS/KRAS, SPR
  NRAS/KRAS (ratio of KD for GDP-bound NRAS wild-type to KD for KRAS): C (A compound having a KD ratio of 0.1 or more and less than 3 is denoted as C)

## CCCN(C)C(=O)[C@@H]1CC(=O)N(C)[C@@H](CC(F)F)C(=O)N[C@@H]([C@@H](C)CC)C(=O)N(C)CC(=O)N(C)[C@H]2C/C=C\CCN(C2=O)[C@@H](Cc2ccc(C(F)(F)F)cc2)C(=O)N(C)CC(=O)N[C@@H](CCc2ccc(C(F)(F)F)c(OC)c2)C(=O)N2C[C@@H](C)C[C@H]2C(=O)NC2(CCC2)C(=O)N(C)[C@@H](C2CCCC2)C(=O)N1C [PP2024]
[1]; [3]
  HRAS/KRAS (ratio of KD value for HRAS to KD value for KRAS): B (a compound having 3 or more and less than 10 is denoted as B)
[2]; [4]
  NRAS/KRAS (ratio of KD value for NRAS to KD value for KRAS): A (a compound having 10 or more and less than 20 is denoted as A)

## CC[C@H](C)[C@@H]1NC(=O)[C@H](COC)N(C)C(=O)C[C@@H](C(=O)N2CCCCC2)N(C)C(=O)[C@H](C2CCCC2)N(C)C(=O)C2(CC(C)(C)C2)NC(=O)[C@@H]2C[C@@H](OC(C)C)CN2C(=O)[C@H](CCc2cc(F)c(C(F)(F)F)c(F)c2)NC(=O)CN(C)C(=O)[C@H](Cc2ccc(C)cc2)N2CC/C=C\C[C@@H](C2=O)N(C)C(=O)CN(C)C1=O [PP2669]
[1]; KD ratio HRAS/KRAS
  HRAS/KRAS (ratio of KD value with respect to GDP-bound HRAS wild-type protein to KD value with respect to KRAS): A (a compound having 10 or more and less than 20 is denoted as A)
[2]; KD ratio NRAS/KRAS
  NRAS/KRAS (ratio of KD value with respect to GDP-bound NRAS wild-type protein to KD value with respect to KRAS): A (a compound having 10 or more and less than 20 is denoted as A)

## CC[C@H](C)[C@@H]1NC(=O)[C@H](CC(C)C)N(C)C(=O)C[C@@H](C(=O)N(C)C)N(C)C(=O)[C@H](C2CCCC2)N(C)C(=O)C2(CCC2)NC(=O)[C@@H]2C[C@@H](C)CN2C(=O)[C@H](CCc2ccc(C(F)(F)F)c(Cl)c2)NC(=O)CN(C)C(=O)[C@H](Cc2ccc(C)cc2)N2CC/C=C\C[C@@H](C2=O)N(C)C(=O)CN(C)C1=O [PP1854]
[1]; [3]
  HRAS/KRAS (ratio of KD value for HRAS to KD value for KRAS): A (a compound having 10 or more and less than 20 is denoted as A)
[2]; [4]
  NRAS/KRAS (ratio of KD value for NRAS to KD value for KRAS): A (a compound having 10 or more and less than 20 is denoted as A)

## CCO[C@@H]1C[C@H]2C(=O)NC3(CC(C)(C)C3)C(=O)N(C)[C@@H](C3CCCC3)C(=O)N(C)[C@H](C(=O)N(C)CC)CC(=O)N(C)[C@@H](CC)C(=O)N[C@@H]([C@@H](C)CC)C(=O)N(C)CC(=O)N(C)[C@H]3C/C=C\CCN(C3=O)[C@@H](Cc3ccc(C(F)(F)F)cc3)C(=O)N(C)CC(=O)N[C@@H](CCc3ccc(Cl)c(Cl)c3)C(=O)N2C1 [PP2822]
[1]; KD ratio HRAS/KRAS
  HRAS/KRAS (ratio of KD value with respect to GDP-bound HRAS wild-type protein to KD value with respect to KRAS): A (a compound having 10 or more and less than 20 is denoted as A)
[2]; KD ratio NRAS/KRAS
  NRAS/KRAS (ratio of KD value with respect to GDP-bound NRAS wild-type protein to KD value with respect to KRAS): A (a compound having 10 or more and less than 20 is denoted as A)
